Test results reported in ChEMBL document CHEMBL1201862, “PubChem BioAssay data set” (2004).
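In this assay, cells in 96-well plates receive the compound at five concentrations for 48 hours. Endpoints are linearly interpolated between the surrounding concentrations. GI50 is the concentration that inhibits growth by half.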 Calls of active or inactive are those of the source. Rule as the data show it: active = GI50 up to about 1.1 µM and inactive = higher.

How the values were obtained:
Experiment in all cases: NCI-60 cell line screen, 48 h
[1] = test system: MDA-MB-231
[2] = test system: NCI/ADR-RES
[3] = test system: MDA-MB-435
[4] = test system: SF-539
[5] = test system: SK-MEL-5
[6] = test system: HCT-116
[7] = test system: HOP-62
[8] = test system: HT-29
[9] = test system: UO-31
[10] = test system: OVCAR-5
[11] = test system: IGROV-1
[12] = test system: HCC 2998
[13] = test system: SNB-75
[14] = test system: KM12
[15] = test system: NCI-H522
[16] = test system: UACC-62
[17] = test system: HL-60
[18] = test system: HOP-92
[19] = test system: LOX IMVI
[20] = test system: CAKI-1

Measured: GI50

CC(=O)SC(C[N+](=O)[O-])c1ccc2c(c1)OCO2 (stereo not given)
inactive: [1] 7.45 µM | [2] 11.6 µM | [3] 3.54 µM | [4] 2.37 µM | [5] 6.95 µM | [6] 2.31 µM | [7] 17.4 µM | [8] 2.49 µM | [9] 5.46 µM | [10] 7.83 µM | [11] 5.2 µM | [12] 1.73 µM | [13] 9.59 µM | [14] 4.75 µM | [15] 5.22 µM | [16] 5.62 µM | [17] 1.97 µM | [18] 12 µM | [19] 1.81 µM | [20] 6.56 µM

Nc1nccc(Nc2ccc(S(N)(=O)=O)cc2)n1
inactive: [1] > 100 µM | [2] > 100 µM | [3] > 100 µM | [4] > 100 µM | [5] > 100 µM | [6] > 100 µM | [7] > 100 µM | [8] > 100 µM | [9] > 100 µM | [10] > 100 µM | [11] > 100 µM | [12] > 100 µM | [13] > 100 µM | [14] > 100 µM | [15] > 100 µM | [16] > 100 µM | [17] > 100 µM | [18] > 100 µM | [19] > 100 µM | [20] > 100 µM
